Source: PubChem BioAssay (NCI)
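Tested at 5 concentrations; 48 h exposure; 96-well plates; endpoints linearly interpolated, else capped at highest concentration. Here, GI50 denotes the concentration required for 50% inhibition of growth. TGI denotes the concentration required for complete inhibition of growth.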

What was measured:
Assay in all cases: NCI anticancer screen, dose series, 48 h
[1] = test system: COLO 205 colon
[2] = test system: HL-60(TB) leukemia
[3] = test system: RPMI-8226 leukemia
[4] = test system: CCRF-CEM leukemia
[5] = test system: BT-549 breast
[6] = test system: TK-10 renal
[7] = test system: SW-620 colon
[8] = test system: UACC-62 melanoma
[9] = test system: LOX IMVI melanoma
[10] = test system: SK-MEL-28 melanoma
[11] = test system: HCT-116 colon
[12] = test system: UO-31 renal
[13] = test system: SNB-19 CNS
[14] = test system: NCI-H226 lung
[15] = test system: M14 melanoma
[16] = test system: T-47D breast
[17] = test system: A549 NSCLC
[18] = test system: A498 renal
[19] = test system: SNB-75 CNS
[20] = test system: HOP-92 NSCLC
[21] = test system: MCF7 breast
[22] = test system: HS 578T breast
[23] = test system: PC-3 prostate
[24] = test system: NCI-H460 lung
[25] = test system: HCC-2998 colon
[26] = test system: NCI-H23 lung
[27] = test system: SK-MEL-5 melanoma
[28] = test system: NCI/ADR-RES ovarian
[29] = test system: HCT-15 colon
[30] = test system: MALME-3M melanoma
[31] = test system: DU-145 prostate
[32] = test system: SF-295 CNS
[33] = test system: IGROV1 ovarian
[34] = test system: SN12C renal
[35] = test system: U251 CNS
[36] = test system: EKVX NSCLC
[37] = test system: SF-268 CNS
[38] = test system: ACHN renal
[39] = test system: OVCAR-5 ovarian
[40] = test system: SK-OV-3 ovarian
[41] = test system: 786-0 renal
[42] = test system: MOLT-4 leukemia
[43] = test system: OVCAR-8 ovarian
[44] = test system: RXF 393 renal
[45] = test system: OVCAR-4 ovarian
[46] = test system: HOP-62 NSCLC
[47] = test system: SF-539 CNS
[48] = test system: UACC-257 melanoma
[49] = test system: CAKI-1 renal
[50] = test system: SR leukemia
[51] = test system: KM12 colon
[52] = test system: OVCAR-3 ovarian
[53] = test system: SK-MEL-2 melanoma
[54] = test system: MDA-MB-435
[55] = test system: NCI-H522 lung
[56] = test system: K-562 leukemia
[57] = test system: HT29 colon

For `CCCCNC(c1ccc(Cl)cc1)C(O)c1ccc(Cl)cc1` (centres undefined), the GI50 [1] was 1.56 µM, the TGI [1] was 3.25 µM and the GI50 [2] was 1.02 µM. For the same compound, the TGI [2] was 2.93 µM, the GI50 [3] was 2.09 µM and the TGI [3] was 5.51 µM. The GI50 [4] was 2.49 µM, the TGI [4] was 8.65 µM and the GI50 [5] was 5.63 µM. It also gave a TGI [5] of 21.4 µM, a GI50 [6] of 2.2 µM and a TGI [6] of 6.99 µM. It also gave a GI50 [7] of 1.78 µM, a TGI [7] of 3.93 µM and a GI50 [8] of 1.49 µM. It also gave a TGI [8] of 3.18 µM, a GI50 [9] of 1.39 µM and a TGI [9] of 2.7 µM. For the same compound, the GI50 [10] was 2.06 µM, the TGI [10] was 4.5 µM and the GI50 [11] was 0.938 µM. The TGI [11] was 2.27 µM, the GI50 [12] was 1.55 µM and the TGI [12] was 10.2 µM. For the same compound, the GI50 [13] was 2.09 µM, the TGI [13] was 5.74 µM and the GI50 [14] was 6.58 µM. For the same compound, the TGI [14] was 25.1 µM, the GI50 [15] was 1.22 µM and the TGI [15] was 2.9 µM. It also gave a GI50 [16] of 1.67 µM, a TGI [16] of 4.52 µM and a GI50 [17] of 3.87 µM. It also gave a TGI [17] of 17.8 µM, a GI50 [18] of 2.29 µM and a TGI [18] of 5.57 µM. For the same compound, the GI50 [19] was 1.93 µM, the TGI [19] was 11.4 µM and the GI50 [20] was 1.13 µM. It also gave a TGI [20] of 5.16 µM, a GI50 [21] of 1.95 µM and a TGI [21] of 5.03 µM. The GI50 [22] was 4.98 µM, the TGI [22] was 26.9 µM and the GI50 [23] was 1.92 µM. It also gave a TGI [23] of 7.47 µM, a GI50 [24] of 1.76 µM and a TGI [24] of 4.41 µM. The GI50 [25] was 1.83 µM, the TGI [25] was 3.85 µM and the GI50 [26] was 2.25 µM. The TGI [26] was 7.59 µM, the GI50 [27] was 1.73 µM and the TGI [27] was 3.2 µM. The GI50 [28] was 1.81 µM, the TGI [28] was 5.35 µM and the GI50 [29] was 2.08 µM. For the same compound, the TGI [29] was 5.7 µM, the GI50 [30] was 1.52 µM and the TGI [30] was 3.08 µM. For the same compound, the GI50 [31] was 3.1 µM, the TGI [31] was 10.4 µM and the GI50 [32] was 1.02 µM. For the same compound, the TGI [32] was 2.44 µM, the GI50 [33] was 2.41 µM and the TGI [33] was 12.4 µM. It also gave a GI50 [34] of 2.16 µM, a TGI [34] of 10.6 µM and a GI50 [35] of 1.75 µM. The TGI [35] was 3.65 µM, the GI50 [36] was 2.76 µM and the TGI [36] was 14.7 µM. The GI50 [37] was 3.21 µM, the TGI [37] was 16.3 µM and the GI50 [38] was 2.46 µM. It also gave a TGI [38] of 7.36 µM, a GI50 [39] of 2.94 µM and a TGI [39] of 15.7 µM. For the same compound, the GI50 [40] was 5.72 µM, the TGI [40] was 20 µM and the GI50 [41] was 1.59 µM. The TGI [41] was 3.95 µM, the GI50 [42] was 1.67 µM and the TGI [42] was 6.67 µM. It also gave a GI50 [43] of 2.51 µM, a TGI [43] of 6.02 µM and a GI50 [44] of 1.49 µM. It also gave a TGI [44] of 3.65 µM, a GI50 [45] of 2.87 µM and a TGI [45] of 13.5 µM. The GI50 [46] was 2.19 µM, the TGI [46] was 9.71 µM and the GI50 [47] was 1.83 µM. It also gave a TGI [47] of 3.57 µM, a GI50 [48] of 2.25 µM and a TGI [48] of 5.03 µM. For the same compound, the GI50 [49] was 1.82 µM, the TGI [49] was 6.63 µM and the GI50 [50] was 1.07 µM. It also gave a TGI [50] of 3.75 µM, a GI50 [51] of 2.04 µM and a TGI [51] of 5.34 µM. For the same compound, the GI50 [52] was 1.98 µM, the TGI [52] was 4.83 µM and the GI50 [53] was 1.81 µM. For the same compound, the TGI [53] was 3.68 µM, the GI50 [54] was 1.61 µM and the TGI [54] was 3.57 µM. For the same compound, the GI50 [55] was 1.56 µM, the TGI [55] was 3.51 µM and the GI50 [56] was 2.11 µM. It also gave a TGI [56] of 5.68 µM, a GI50 [57] of 0.792 µM and a TGI [57] of 2.74 µM.
